Test [1] relates to M. tuberculosis isolate 571/573-BAL. As to the kind of experiment: Detergent screen for induced susceptibility, BACTEC 12B growth curves. The class given is cell-based, Mycobacterium tuberculosis. As to conditions: for RESULT (effect on growth): 571/573-BAL, detergent approximately 17 μg/ml final, BACTEC 12B supplemented with PANTA or P/cax (ceftriaxone 8 μg/ml); for CB-18 effect in the methods of the invention: carboxybetaines tested.

Test [2] deals with M. tuberculosis isolates ATCC 27294 and 571/573-BAL. As to the kind of experiment: Further studies of the range of activity of betaines. The class given is cell-based, Mycobacterium tuberculosis. The source says:
FIGS. 32A and 32B show the variability when simple (i.e., unmodified) carboxybetaines with methylene (Detain PB and Velvetex OLB), ethylene (C18-carboxyethylbetaine), and propylene (CB-18) bridges were employed in this assay. This is consistent with the data of Tsubone K. et al., Jour. Pharm. Sci. 80:441–444 (1991) wherein toxicity is correlated with bridge length.
While the apparent bactericidal activity of the amine oxide was anticipated based on the use of these compounds in antimicrobial formulations (Michaels, E. B., U.S. Pat. No. 564,454 and U.S. Pat. No. 641,728), the activity of the Brij compounds and Crosultaine E-30 was surprising. […] Crosultaine E-30 has both an amidopropyl linkage and a hydroxypropyl bridge. […] Historically, the nonionic detergents have been reported to be contaminated with impurities, and only when purified stimulate growth (Dubos, R. J. et al., Jour. Exptl. Med. 83:409–423 (1946)). Impurities might explain the results with the Brij detergents and Crosultaine E-30.

Test [3] has the same test system. As to the kind of experiment: CB-18 vs. EDTA, BACTEC 12B growth curves. The class given is cell-based, Mycobacterium tuberculosis.
For test [4] the test system is unchanged. Kind of test: CB-18 and TMA-18 comparison, BACTEC 12B growth curves. The class given is cell-based, Mycobacterium tuberculosis. As to the method: If the mechanism of CB-18's action was similar to that of the quaternary salts (i.e., generally deleterious), then some delay would be anticipated. For example, if the CB-18 effect was a consequence of the surface active property of the detergent, then disruption of cellular function would not only have nonspecific long term consequences, but would also be independent of the isolate. In an effort to examine the similarity in the mechanism, CB-18 was assayed in parallel with trimethyloctadecylammonium bromide (TMA-18 (Aldrich, Milwaukee, Wis., Cat.# 35,924-6): made as a 100× stock in 1:1, water:isopropanol similar to that described for CB-18 in Example 1). The experimental design is outlined in FIG. 6.
In this experiment both ATCC 27294 and 571/573-BAL were cultivated on 7H11-selective media, and then serially diluted in NALC/citrate to 10,000×. The planting solution (i.e., the final dilution (50,000×)) was manufactured by diluting into either buffer, 0.5 mM CB-18, or 0.1 mM TMA-18 (all concentrations represent the final detergent concentration in the planting solution). […] The final concentration of CB-18 during incubation was approximately 17 μg/ml. The final concentration of TMA-18 during incubation was approximately 3.4 μg/ml. […] FIGS. 7A–7C show one experiment wherein ATCC 27294 cells were planted in the different solutions described above, and FIGS. 8A–8C show a parallel experiment wherein 571/573-BAL cells were planted in the same series.

Test [5] concerns M. fortuitum complex isolates ATCC 6841 and 495-JHH. Kind of test: CB-18 titration, BACTEC 12B growth curves. The class given is cell-based. The note with it: M. fortuitum 495-JHH; cefoxitin (8 μg/ml in PANTA) without CB-18.
Test [6] has as its system M. tuberculosis isolate 571/573-BAL. Kind of test: Planting in lecithin at low inocula, BACTEC 12B growth curves. The class given is cell-based, Mycobacterium tuberculosis. An excerpt: In this experiment the 571/573-BAL isolate was cultivated on 7H11-selective media, serially diluted in NALC/citrate to approximately 1,000×. In an attempt to examine how the inoculum impacted the results of this assay three different stocks were manufactured, one series in buffer and one series in CB-18. […] The planting solutions were manufactured by mixing these three stocks 1:1 with either buffer or a buffered solution of lecithin (Sigma, St. Louis, Mo.; Cat.#: P 5394 (7.5% lecithin was made up as a 100× concentrate in 100% ethanol (3 grams in 40 mls) and diluted in the Tris buffer of Example 1 immediately prior to use)). The final dilutions of three different planting solutions were approximately 5000×, 25,000×, and 100,000×. The final concentration of CB-18 and lecithin in the appropriate planting solutions was approximately 0.5 mM. […] The final concentration of both lecithin and CB-18 during incubation was approximately 17 μg/ml.
Aliquots of the three stocks (i.e., 2,500×, 12,500× and 50,000×) were also taken for quantitative culture by plating on 7H10 plates (Becton Dickinson, Cockeysville, Md.). […] FIG. 5A presents the 5,000× series planted in either buffer or buffer containing lecithin, and FIG. 5B presents the 5,000× series planted in CB-18 or CB-18 combined with lecithin. FIG. 5C presents the 25,000× series planted in either buffer or buffer containing lecithin, and FIG. 5D presents the 25,000× series planted in CB-18 or CB-18 combined with lecithin. FIG. 5E presents the 100,000× series planted in either buffer or buffer containing lecithin, and FIG. 5F presents the 100,000× series planted in CB-18 or CB-18 combined with lecithin.

“Also recorded” adds a separate entry of the source. Where a name gives a salt, the structure may show the parent alone.

In the case of `CCCCCCCCCCCCCCCCCC[N+](C)(C)Cc1ccccc1.[Cl-]` [Benzyldimethyl-stearyl ammonium chloride, benzyldimethyl-stearyl ammonium chloride, reference compound], in test [1], the “RESULT (effect on growth)” value is listed as “Complete suppression of growth”.
Take `CCCCCCCCCCCCCCCC[N+](C)(C)CC(O)CS(=O)(=O)[O-]` (stereo not shown) [C16-hydroxypropyl-sulfobetaine]: the “RESULT (effect on growth)” value in test [1] is listed as “Slight delay in growth”.
As to `CCCCCCCCCCCCCCCCCC[N+](C)(C)CCC(=O)[O-]` [C18-carboxyethylbetaine, N-(2-carboxyethyl)-N,N-dimethyl-1-octadecanaminium, inner salt], in test [1], the “RESULT (effect on growth)” value is “strong ability to suppress growth when combined with antibiotics; also recorded: Complete suppression of growth” and the “CB-18 effect in the methods of the invention” value (from here on “CB-18 effect in the methods”) is recorded as “show the CB-18 effect”. In addition, the range of activity in test [2] (ATCC 27294) was in the range of 7 to 13 µg/mL.
Consider `CCCCCCCCCCCCCCCCCC[N+](C)(C)CCCCS(=O)(=O)[O-]` [C18-sulfobutylbetaine], for which, in test [1], the “RESULT (effect on growth)” value is given as “Slight delay in growth”.
As to `C[C@H](CCC(=O)NCCC[N+](C)(C)CCCS(=O)(=O)[O-])[C@H]1CC[C@H]2[C@@H]3[C@H](O)C[C@@H]4C[C@H](O)CC[C@]4(C)[C@H]3C[C@H](O)[C@]12C` [CHAPS, reference compound], in test [1], the “RESULT (effect on growth)” value was “No effect”.
For `CCCCCCCCCCCCCCCC[N+](C)(C)CC(=O)[O-]` [DeTaine PB, cetyl-carboxymethylbetaine], in test [1], the “RESULT (effect on growth)” value is recorded as “Strong suppression of growth” and the “CB-18 effect in the methods” value is on record as “show the CB-18 effect”.
With `C[C@H](CCC(=O)O)[C@H]1CC[C@H]2[C@@H]3CC[C@@H]4C[C@H](O)CC[C@]4(C)[C@H]3C[C@H](O)[C@]12C` [Deoxycholic acid, deoxycholic acid, reference compound], the “RESULT (effect on growth)” value in test [1] is listed as “No effect”.
For the compound `O=C(O)CN(CCN(CC(=O)O)CC(=O)O)CC(=O)O` [EDTA], the “effect on growth characteristics” value in test [3] (ATCC 27294 and 571/573-BAL, EDTA approximately 17 μg/ml, R.F. or P/cax) is on record as “no effect”.
Regarding `[Cl-].[Cl-].[Mg+2]` [MgCl2, reference compound], in test [3] (571/573-BAL, five-fold molar excess of MgCl2 (85 μg/ml) added to CB-18 17 μg/ml, R.F.), the “effect on growth character in the presence of CB-18” value is “no improvement”. The “effect on the detrimental effects of the CB-18/P-cax combination” value in test [3] (MgCl2 85 μg/ml added to CB-18 17 μg/ml with P-cax, both isolates, especially 571/573-BAL) is reported as “alleviate, to some degree”.
With `CCCCCCCCCCCCCCCC(=O)O` [Palmitic acid, palmitic acid, reference compound], the “RESULT (effect on growth)” value in test [1] was “No effect”.
On to `CCCCCCCCCCCCCCCCCC[N+](C)(C)CCCS(=O)(=O)[O-]` [SB-18, N-octadecyl-N,N-dimethyl-3-ammonio-1-propane-sulfonate], for which, in test [1], the “RESULT (effect on growth)” value is “significant activity; also recorded: Modest suppression”. Also, in test [2] (571/573-BAL), the range of activity was 20 to 75 µg/mL.
For the compound `CCCCCCCCCCCCCCCCCC(=O)O` [Stearic acid, stearic acid, reference compound], the “RESULT (effect on growth)” value in test [1] was “No effect”.
Take `CCCCCCCCCCCCCCCCCC[N+](C)(C)C.[Br-]` [TMA-18, trimethyloctadecylammonium bromide, reference compound]: the “RESULT (effect on growth)” value in test [1] was “Complete suppression of growth”. For the same compound, the effect on growth entry is recorded as “significant delays were observed in all bottles” in test [4] (571/573-BAL, 3.4 μg/ml TMA-18, R.F., PANTA or P/cax); “significant delays in all bottles” in test [4] (ATCC 27294, 3.4 μg/ml TMA-18, R.F., PANTA or P/cax); “bacteriostatic in isolation; also recorded: inhibitory at low concentrations” in test [4] (ATCC 27294 and 571/573-BAL, TMA-18 3.4 μg/ml (FIGS. 7C and 8C)).
Regarding `CCCCCCCCCCCCCC[N+](C)(C)Cc1ccccc1.[Cl-]` [benzyldimethyl-tetradecyl ammonium chloride, reference compound], the “RESULT (effect on growth)” value in test [1] is “Complete suppression of growth”.
Consider `CO[C@@]1(NC(=O)Cc2cccs2)C(=O)N2C(C(=O)O)=C(COC(N)=O)CS[C@@H]21` [cefoxitin, reference compound], for which, in test [5], the effect on growth result was “unaffected”.
Consider C16-amidopropyl-sulfatobetaine, for which, in test [1], the “RESULT (effect on growth)” value is reported as “No effect”.
Regarding “cetyl-(poyoxyethylene)10 [Brij 56, reference compound]”, the “RESULT (effect on growth)” value in test [1] is “significantly suppress growth; also recorded: Very strong suppression of growth”.
On to “erucamidopropyl hydroxypropyl sulfobetaine [Crosultaine E-30]”, for which the figures for the “RESULT (effect on growth)” value in test [1] and in test [1] (listed as Crosultaine E30) were “Strong suppression of growth” and “significantly suppress growth”, respectively.
Consider “oleyl-(poyoxyethylene)10 [Brij 97, reference compound]”, for which, in test [1], the “RESULT (effect on growth)” value is “significantly suppress growth; also recorded: Very strong suppression of growth”.
Regarding “oleyl-carboxymethylbetaine [Velvetex OLB-50]”, in test [1], the “RESULT (effect on growth)” value is “Very strong suppression of growth” and the “CB-18 effect in the methods” value is “show the CB-18 effect”.
As to phosphatidylcholine [lecithin], the “ability to overcome the detrimental effect of CB-18” value in test [6] (lecithin and CB-18 approximately 17 μg/ml each, CB-18 alone and in combination with antibiotics) is “able to overcome the detrimental effect of CB-18”. Besides, the “ability to overcome the deleterious effect of the antibiotic formulation (P/caz)” value in test [6] (lecithin approximately 17 μg/ml, absence of CB-18) is listed as “ability to overcome, to some degree”. Moreover, the “impact on the sensitivity of the BACTEC 12B assay” value in test [6] (lecithin approximately 17 μg/ml, no CB-18) is “little if any impact”.
“stearylamidopropyl-carboxybetaine [Schercotaine IAB]”: in test [1], the “RESULT (effect on growth)” value is recorded as “No effect”.

The values above are taken from patent publication US7067500B2, “Betaines as adjuvants to susceptibility testing and antimicrobial therapy” (priority 1997, dated 2006).
